Measurements taken from article PMC7866225, “Microwave-Assisted Synthesis of (Piperidin-1-yl)quinolin-3-yl)methylene)hydrazinecarbothioamides as Potent Inhibitors of Cholinesterases: A Biochemical and In Silico Approach” (Molecules, 2021).
Several values for one entry are separate records, joined by “and”; a condition that tells them apart may be missing. Equal values may be shown once.

How the values were obtained:
[1] = target: Acetylcholinesterase (AChE) (Electrophorus electricus, UniProt O42275); experiment: biochemical; conditions: Ellman's method, triplicate; read-out: Acetylcholinesterase (AChE) IC50 ± SEM
Description: (§1) Modified Ellman’s method was adopted to investigate the inhibitory potential of newly synthesized compounds against cholinesterase enzymes. The assay protocol involved 96-well plates (100 μL per well). Each well contained 20 μL of assay buffer solution, 10 μL of test sample, and 10 μL of 0.5 U/mg of AChE (for AChE inhibition assay) or 10 μL of 3.4 U/mg of BChE (for BChE inhibition assay). This mixture was incubated at 25 °C for 10 min followed by the addition of substrate (10 μL). For AChE inhibition assay, acetylthiocholine iodide (ATCI, 1 mM) while for BChE assay, butyrylthiocholine chloride (BTCCl, 1 mM), was added. This mixture was incubated for 15 min at 37 °C. Ellman reagent (5,5′-dithio-bis(2-nitrobenzoic acid), DTNB, 3 mM) was added. […] Blank assay was also performed. All the analyses were performed in triplicate. IC50 values were also calculated for the synthesized compounds in GraphPad prism 5.0. using nonlinear regression method.

[2] = target: Butyrylcholinesterase (BChE) (Equus caballus, UniProt P81908); experiment: biochemical; conditions: Ellman's method, triplicate; read-out: Butyrylcholinesterse (BChE) IC50 ± SEM
Description: as §1

HepG2 cells = experiment: In vitro cytotoxicity, MTT assay; format: cell-based; conditions: HepG2, MTT, 0–1000 µg/mL, 24 h
Description: (§2) HepG2 cell line was obtained from the cell culture laboratory established in The University of Lahore. These cell lines were preserved in cryo vials present in liquid nitrogen. Cryo vials were revived for further processing.
(§3) The cryo vials obtained from liquid nitrogen cylinder were thawed. Then HepG2 cells were cultured in the culturing flask in which DMEM-HG along with 10% fetal bovine serum (FBS), supplemented with […] (Sigma) and 100 U/mL streptomycin (Sigma) were added. Cultures were maintained in a humidified incubator supplied with 5% CO2 at 37 °C. Experiments were performed in triplicates. When cultured HepG2 cells achieved 70–80% confluence their subculturing was conducted. For splitting, the cells attached to the walls of the culturing flask were washed with 1× phosphate buffer saline (PBS) and incubated with 0.05% trypsin-EDTA until cells detached from the surface of culturing flask. The detachment of the cells was confirmed by observing the flask under the inverted microscope. A few drops of FBS were added to the flask and mixed well by stirring. The mixture was centrifuged at 2000 rpm for 5 min. After centrifugation the supernatant was removed, and pellet was resuspended. HepG2 cells were cultured onto 96-well plates for measurement of cell viability. Treatment was given for both compounds at a concentration of 0–1000 µg/mL for 24 h.
(§4) After 4 h formazan crystals were solubilized with 10% sodium dodecylsulphate (SDS) (Invitrogen Inc.) and absorbance was taken at 570 nm. Percentage viability was calculated according to the following formula:% Viable cells = ((abs sample − abs blank) / (abs control − abs blank)) × 100 (1) where abs stands for absorbance.

[3] = In vitro cytotoxicity, MTT assay; format: cell-based; conditions: human, HepG2 cells, 24 h, control = 100, read-out: Cell Viability; for viability at 24 h, 50 μg/mL: HepG2, 50 μg/mL; for viability at 24 h, 100 μg/mL: HepG2, 100 μg/mL; for viability at 24 h, 200 μg/mL: HepG2, 200 μg/mL; for viability at 24 h, 500 μg/mL: HepG2, 500 μg/mL; for viability at 24 h, 1000 μg/mL: HepG2, 1000 μg/mL
Description: as §2, §3, §4

Butyrylcholinesterase (BChE), sequence (P81908 whole entry): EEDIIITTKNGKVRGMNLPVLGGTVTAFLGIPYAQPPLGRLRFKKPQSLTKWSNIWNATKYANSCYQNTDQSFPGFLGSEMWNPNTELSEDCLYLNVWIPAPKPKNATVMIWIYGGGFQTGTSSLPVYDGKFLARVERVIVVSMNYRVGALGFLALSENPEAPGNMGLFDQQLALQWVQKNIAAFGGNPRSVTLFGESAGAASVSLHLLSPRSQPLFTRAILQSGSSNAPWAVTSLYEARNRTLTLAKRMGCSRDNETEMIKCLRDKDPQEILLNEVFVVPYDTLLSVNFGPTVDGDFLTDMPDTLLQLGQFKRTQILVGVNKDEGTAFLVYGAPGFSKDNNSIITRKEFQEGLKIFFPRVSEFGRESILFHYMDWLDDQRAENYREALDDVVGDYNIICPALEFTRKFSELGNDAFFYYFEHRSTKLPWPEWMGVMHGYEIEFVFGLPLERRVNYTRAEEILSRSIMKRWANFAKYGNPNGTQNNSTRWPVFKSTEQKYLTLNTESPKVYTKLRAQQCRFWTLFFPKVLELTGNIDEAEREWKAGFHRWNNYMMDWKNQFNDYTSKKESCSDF
Acetylcholinesterase (AChE), sequence (O42275 24-633): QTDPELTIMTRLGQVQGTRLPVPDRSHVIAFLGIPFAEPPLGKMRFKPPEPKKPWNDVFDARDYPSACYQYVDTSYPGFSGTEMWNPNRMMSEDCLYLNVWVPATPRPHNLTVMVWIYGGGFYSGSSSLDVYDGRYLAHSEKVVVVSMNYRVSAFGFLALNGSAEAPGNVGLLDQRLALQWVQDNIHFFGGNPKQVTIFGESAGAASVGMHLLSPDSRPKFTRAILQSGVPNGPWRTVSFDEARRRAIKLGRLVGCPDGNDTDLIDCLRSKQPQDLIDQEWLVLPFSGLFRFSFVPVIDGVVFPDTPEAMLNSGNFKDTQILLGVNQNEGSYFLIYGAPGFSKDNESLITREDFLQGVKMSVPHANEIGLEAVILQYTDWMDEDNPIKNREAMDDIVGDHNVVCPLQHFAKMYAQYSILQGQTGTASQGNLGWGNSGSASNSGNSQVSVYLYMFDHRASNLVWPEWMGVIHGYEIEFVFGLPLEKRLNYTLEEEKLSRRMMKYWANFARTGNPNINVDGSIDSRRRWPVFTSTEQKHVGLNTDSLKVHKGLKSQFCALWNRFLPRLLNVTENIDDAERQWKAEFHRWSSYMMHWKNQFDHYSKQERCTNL

Row | SMILES | IC50 [1] | IC50 [2] | Status (HepG2 cells) | viability at 24 h, 50 μg/mL [3] [%] | viability at 24 h, 100 μg/mL [3] [%] | viability at 24 h, 200 μg/mL [3] [%] | viability at 24 h, 500 μg/mL [3] [%] | viability at 24 h, 1000 μg/mL [3] [%]
1 | Cc1ccc(NC(=S)NN=Cc2cc3cccc(C)c3nc2N2CCCCC2)c(C)c1 [Compound 6c, N-(2,4-Dimethylphenyl)-2-((8-methyl-2-(piperidin-1-yl)quinolin-3-yl)methylene)hydrazine carbothioamide] | 39.12 ± 0.27 µM | 24.59 ± 0.09 µM | Proliferative | 87.5 | 116 | 154 | 187 | 233
2 | Cc1cccc(C)c1NC(=S)NN=Cc1cc2cccc(C)c2nc1N1CCCCC1 [Compound 6d, N-(2,6-Dimethylphenyl)-2-((8-methyl-2-(piperidin-1-yl)quinolin-3-yl)methylene)hydrazine carbothioamide] | < 20 µM and 12.9 µM | < 20 µM and 17.9 µM | Proliferative | 75 | 93.9 | 91.3 | 129 | 173
3 | Cc1cccc2cc(C=NNC(=S)Nc3ccccc3Cl)c(N3CCCCC3)nc12 [Compound 6e, N-(2-Chlorophenyl)-2-((8-methyl-2-(piperidin-1-yl)quinolin-3-yl)methylene)hydrazine carbothioamide] | 32.11 ± 0.15 µM | 37.1 ± 0.59 µM | Proliferative | 102 | 112 | 167 | 180 | 212
4 | Cc1cccc2cc(C=NNC(=S)Nc3cccc(Cl)c3)c(N3CCCCC3)nc12 [Compound 6f, N-(3-Chlorophenyl)-2-((8-methyl-2-(piperidin-1-yl)quinolin-3-yl)methylene)hydrazine carbothioamide] | < 20 µM and 9.68 µM | < 20 µM and 11.6 µM | Proliferative | 110 | 110 | 109 | 139 | 189
5 | Cc1cccc2cc(C=NNC(=S)Nc3ccc(Cl)cc3)c(N3CCCCC3)nc12 [Compound 6g, N-(4-Chlorophenyl)-2-((8-methyl-2-(piperidin-1-yl)quinolin-3-yl)methylene)hydrazine carbothioamide] | < 20 µM and 13.8 µM | < 20 µM and 18.6 µM | Proliferative | 113 | 106 | 111 | 150 | 214
6 | Cc1cccc2cc(C=NNC(=S)Nc3ccccc3F)c(N3CCCCC3)nc12 [Compound 6h, N-(2-Fluorophenyl)-2-((8-methyl-2-(piperidin-1-yl)quinolin-3-yl)methylene)hydrazine carbothioamide] | 40.23 ± 0.25 µM | 45.12 ± 0.19 µM | Proliferative | 100 | 110 | 126 | 151 | 202
7 | Cc1cccc2cc(C=NNC(=S)Nc3cccc(F)c3)c(N3CCCCC3)nc12 [Compound 6i, N-(3-Fluorophenyl)-2-((8-methyl-2-(piperidin-1-yl)quinolin-3-yl)methylene)hydrazine carbothioamide] | 15.8 ± 1.3 µM | 51.11 ± 0.28 µM | Proliferative | 95.5 | 102 | 131 | 112 | 186
8 | Cc1cccc2cc(C=NNC(=S)Nc3ccc(F)cc3)c(N3CCCCC3)nc12 [Compound 6j, N-(4-Fluorophenyl)-2-((8-methyl-2-(piperidin-1-yl)quinolin-3-yl)methylene)hydrazine carbothioamide] | 56.66 ± 0.41 µM | 51 ± 0.52 µM | Non-cytotoxic | 103 | 93.7 | 94.8 | 108 | 114
9 | CCc1ccc(NC(=S)NN=Cc2cc3cccc(C)c3nc2N2CCCCC2)cc1 [Compound 6k, N-(4-Ethylphenyl)-2-((8-methyl-2-(piperidin-1-yl)quinolin-3-yl)methylene)hydrazine carbothioamide] | 39.9 ± 0.85 µM | 32.01 ± 0.31 µM | Proliferative | 103 | 105 | 107 | 138 | 157
10 | Cc1cccc2cc(C=NNC(=S)NCc3ccccc3)c(N3CCCCC3)nc12 [Compound 6l, N-Benzyl-2-((8-methyl-2-(piperidin-1-yl)quinolin-3-yl)methylene)hydrazinecarbothioamide] | 57.25 ± 0.03 µM | 41 ± 0.89 µM | Proliferative | 103 | 105 | 107 | 138 | 157
11 | Cc1cccc2cc(C=NNC(=S)NCCN3CCOCC3)c(N3CCCCC3)nc12 [Compound 6m, 2-((8-Methyl-2-(piperidin-1-yl)quinolin-3-yl)methylene)-N-(2-morpholinoethyl)hydrazine carbothioamide] | 21 ± 2.3 µM | 35.1 ± 0.77 µM | Cytotoxic | 97.9 | 96.8 | 95.3 | 97.4 | 87.6
